Measurements: ChEMBL document CHEMBL3853262 (Medchemcomm, 2016)

Key:
Format in all cases: functional, cell-based
BXPC-3 = experiment: Proapoptotic activity in human BxPC3 cells by annexin V-FITC/propidium iodide staining-based capillary cytometric method
BJ = experiment: Proapoptotic activity in human BJ cells by annexin V-FITC/propidium iodide staining-based capillary cytometric method
ASPC1 = experiment: Proapoptotic activity in human AsPC1 cells by annexin V-FITC/propidium iodide staining-based capillary cytometric method
NTERA-2-cl-D1 = experiment: Proapoptotic activity in human NT2/D1 cells by annexin V-FITC/propidium iodide staining-based capillary cytometric method

- EC50 (BXPC-3): 53 µM
- EC50 (ASPC1): 52 µM
- EC50 (NTERA-2-cl-D1): 16 µM
SMILES: COc1ccc2[nH]c(C(=O)Nc3cccc(-c4c[nH]c(N)n4)c3)cc2c1
- EC50 (BJ): 31 µM
